From ChEMBL document CHEMBL5678810
Calls of active or inactive are those of the source. The calls are words filed in the database; no cut-off is given here.

Columns and labels:
[1] = molecular target: Leucine-rich repeat serine/threonine-protein kinase 2 (Homo sapiens) (UniProt Q5S007); assay: Inhibition of wildtype GFP-tagged LRRK2 phosphorylation at Ser935 residue (unknown origin) transfected in HEK293 cells upto 3 uM incubated for 90 mins by immunoblot analysis; format: cell-based
[2] = molecular target: AP2-associated protein kinase 1 (Homo sapiens) (UniProt Q2M2I8); assay: Inhibition of T7 bacteriophage fused human AAK1 at 10 uM by KINOMEscan analysis relative to control
[3] = system: Tyrosine-protein kinase ABL1 (Homo sapiens), P00519 [T315I]; assay: Inhibition of T7 bacteriophage fused human nonphosphorylated ABL1 T315I mutant at 10 uM by KINOMEscan analysis relative to control
[4] = molecular target: Activin receptor type-2A (Homo sapiens) (UniProt P27037); assay: Inhibition of T7 bacteriophage fused human ACVR2A at 10 uM by KINOMEscan analysis relative to control
[5] = molecular target: Calcium/calmodulin-dependent protein kinase type II subunit alpha (Homo sapiens) (UniProt Q9UQM7); assay: Inhibition of T7 bacteriophage fused human CAMK2A at 10 uM by KINOMEscan analysis relative to control
[6] = molecular target: Cyclin-dependent kinase 5 (Homo sapiens) (UniProt Q00535); assay: Inhibition of T7 bacteriophage fused human CDK5 at 10 uM by KINOMEscan analysis relative to control
[7] = molecular target: Dual specificity protein kinase CLK4 (Homo sapiens) (UniProt Q9HAZ1); assay: Inhibition of T7 bacteriophage fused human CLK4 at 10 uM by KINOMEscan analysis relative to control
[8] = system: Epidermal growth factor receptor (Homo sapiens), P00533 [G719S]; assay: Inhibition of T7 bacteriophage fused human EGFR G719S mutant at 10 uM by KINOMEscan analysis relative to control
[9] = system: Epidermal growth factor receptor (Homo sapiens), P00533 [UNDEFINED MUTATION]; assay: Inhibition of T7 bacteriophage fused human EGFR L747/T751del/Sins mutant at 10 uM by KINOMEscan analysis relative to control
[10] = molecular target: Ephrin type-A receptor 4 (Homo sapiens) (UniProt P54764); assay: Inhibition of T7 bacteriophage fused human EPHA4 at 10 uM by KINOMEscan analysis relative to control
[11] = molecular target: Inhibitor of nuclear factor kappa-B kinase subunit beta (Homo sapiens) (UniProt O14920); assay: Inhibition of T7 bacteriophage fused human IKK-beta at 10 uM by KINOMEscan analysis relative to control
[12] = molecular target: Tyrosine-protein kinase JAK1 (Homo sapiens) (UniProt P23458); assay: Inhibition of T7 bacteriophage fused human JAK1JH2 pseudokinase domain at 10 uM by KINOMEscan analysis relative to control
[13] = system: Mast/stem cell growth factor receptor Kit (Homo sapiens), P10721 [A829P]; assay: Inhibition of T7 bacteriophage fused human KIT A829P mutant at 10 uM by KINOMEscan analysis relative to control
[14] = system: Mast/stem cell growth factor receptor Kit (Homo sapiens), P10721 [L576P]; assay: Inhibition of T7 bacteriophage fused human KIT L576P mutant at 10 uM by KINOMEscan analysis relative to control
[15] = molecular target: Phosphatidylinositol 4,5-bisphosphate 3-kinase catalytic subunit alpha isoform (Homo sapiens) (UniProt P42336); assay: Inhibition of T7 bacteriophage fused human PIK3CA at 10 uM by KINOMEscan analysis relative to control
[16] = system: Phosphatidylinositol 4,5-bisphosphate 3-kinase catalytic subunit alpha isoform (Homo sapiens), P42336 [E542K]; assay: Inhibition of T7 bacteriophage fused human PIK3CA E542K mutant at 10 uM by KINOMEscan analysis relative to control
[17] = molecular target: Serine/threonine-protein kinase PLK2 (Homo sapiens) (UniProt Q9NYY3); assay: Inhibition of T7 bacteriophage fused human PLK2 at 10 uM by KINOMEscan analysis relative to control
[18] = molecular target: Serine/threonine-protein kinase PLK3 (Homo sapiens) (UniProt Q9H4B4); assay: Inhibition of T7 bacteriophage fused human PLK3 at 10 uM by KINOMEscan analysis relative to control
[19] = molecular target: Serine/threonine-protein kinase D3 (Homo sapiens) (UniProt O94806); assay: Inhibition of T7 bacteriophage fused human PRKD3 at 10 uM by KINOMEscan analysis relative to control
[20] = molecular target: Interferon-induced, double-stranded RNA-activated protein kinase (Homo sapiens) (UniProt P19525); assay: Inhibition of T7 bacteriophage fused human PRKR at 10 uM by KINOMEscan analysis relative to control
[21] = molecular target: Tyrosine-protein kinase CSK (Homo sapiens) (UniProt P41240); assay: Inhibition of T7 bacteriophage fused human CSK at 10 uM by KINOMEscan analysis relative to control; values are per cent of control
[22] = molecular target: Serine/threonine-protein kinase NLK (Homo sapiens) (UniProt Q9UBE8); assay: Inhibition of T7 bacteriophage fused human NLK at 10 uM by KINOMEscan analysis relative to control; values are per cent of control
[23] = molecular target: Dual specificity protein kinase CLK2 (Homo sapiens) (UniProt P49760); assay: Inhibition of T7 bacteriophage fused human CLK2 at 10 uM by KINOMEscan analysis relative to control; values are per cent of control
[24] = molecular target: Serine/threonine-protein kinase 24 (Homo sapiens) (UniProt Q9Y6E0); assay: Inhibition of T7 bacteriophage fused human MST3 at 10 uM by KINOMEscan analysis relative to control; values are per cent of control
[25] = molecular target: Myosin-IIIa (Homo sapiens) (UniProt Q8NEV4); assay: Inhibition of T7 bacteriophage fused human MYO3A at 10 uM by KINOMEscan analysis relative to control; values are per cent of control
[26] = molecular target: Dual specificity tyrosine-phosphorylation-regulated kinase 1B (Homo sapiens) (UniProt Q9Y463); assay: Inhibition of T7 bacteriophage fused human DYRK1B at 10 uM by KINOMEscan analysis relative to control; values are per cent of control
[27] = system: Epidermal growth factor receptor (Homo sapiens), P00533 [UNDEFINED MUTATION]; assay: Inhibition of T7 bacteriophage fused human EGFR S752-I759del mutant at 10 uM by KINOMEscan analysis relative to control; values are per cent of control
[28] = molecular target: Ribosomal protein S6 kinase alpha-1 (Homo sapiens) (UniProt Q15418); assay: Inhibition of RSK1 domain1 Activation Loop labeling site in human HEL cell lysate at 10 uM by KiNativ profiling analysis relative to control; format: subcellular
[29] = molecular target: Serine/threonine-protein kinase TAO2 (Homo sapiens) (UniProt Q9UL54); assay: Inhibition of TAO2 Lys2 labeling site in human PC-3 cell lysate at 10 uM by KiNativ profiling analysis relative to control; format: subcellular

Sequence of Epidermal growth factor receptor (Homo sapiens), P00533 [UNDEFINED MUTATION] (P00533 whole entry, looked up, stated change not applied, the tested form may be a part): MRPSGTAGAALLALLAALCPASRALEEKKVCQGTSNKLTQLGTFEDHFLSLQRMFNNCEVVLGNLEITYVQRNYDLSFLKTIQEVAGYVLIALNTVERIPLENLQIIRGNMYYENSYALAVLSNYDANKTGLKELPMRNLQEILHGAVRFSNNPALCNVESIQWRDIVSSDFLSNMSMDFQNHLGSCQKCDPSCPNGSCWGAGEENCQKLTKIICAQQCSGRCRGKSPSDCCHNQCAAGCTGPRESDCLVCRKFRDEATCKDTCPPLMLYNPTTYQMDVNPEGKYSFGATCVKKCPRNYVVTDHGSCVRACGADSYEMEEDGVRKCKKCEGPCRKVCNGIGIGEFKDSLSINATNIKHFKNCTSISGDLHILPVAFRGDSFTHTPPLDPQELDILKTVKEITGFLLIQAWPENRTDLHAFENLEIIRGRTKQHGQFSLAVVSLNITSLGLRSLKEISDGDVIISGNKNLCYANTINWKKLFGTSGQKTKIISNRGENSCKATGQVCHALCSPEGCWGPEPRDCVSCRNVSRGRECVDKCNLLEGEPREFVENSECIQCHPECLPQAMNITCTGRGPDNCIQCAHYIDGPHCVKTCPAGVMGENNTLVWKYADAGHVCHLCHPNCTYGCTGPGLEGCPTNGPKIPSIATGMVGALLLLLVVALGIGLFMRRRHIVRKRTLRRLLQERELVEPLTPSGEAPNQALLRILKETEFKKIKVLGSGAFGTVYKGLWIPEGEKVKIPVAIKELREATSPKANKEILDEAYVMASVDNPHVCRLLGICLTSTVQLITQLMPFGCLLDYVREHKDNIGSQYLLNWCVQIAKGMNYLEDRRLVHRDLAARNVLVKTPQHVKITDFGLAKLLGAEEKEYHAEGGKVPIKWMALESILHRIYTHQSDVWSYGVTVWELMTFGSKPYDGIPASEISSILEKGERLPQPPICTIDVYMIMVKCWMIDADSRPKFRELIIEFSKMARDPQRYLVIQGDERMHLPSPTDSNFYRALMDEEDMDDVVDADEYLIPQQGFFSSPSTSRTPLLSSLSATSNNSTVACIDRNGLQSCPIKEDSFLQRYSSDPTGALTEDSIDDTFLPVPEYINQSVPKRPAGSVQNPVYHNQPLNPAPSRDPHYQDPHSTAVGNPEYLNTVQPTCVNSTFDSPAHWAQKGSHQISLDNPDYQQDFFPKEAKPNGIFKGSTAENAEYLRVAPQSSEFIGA
Sequence of Tyrosine-protein kinase JAK1 (Homo sapiens) (P23458 whole entry, the tested form may be a part): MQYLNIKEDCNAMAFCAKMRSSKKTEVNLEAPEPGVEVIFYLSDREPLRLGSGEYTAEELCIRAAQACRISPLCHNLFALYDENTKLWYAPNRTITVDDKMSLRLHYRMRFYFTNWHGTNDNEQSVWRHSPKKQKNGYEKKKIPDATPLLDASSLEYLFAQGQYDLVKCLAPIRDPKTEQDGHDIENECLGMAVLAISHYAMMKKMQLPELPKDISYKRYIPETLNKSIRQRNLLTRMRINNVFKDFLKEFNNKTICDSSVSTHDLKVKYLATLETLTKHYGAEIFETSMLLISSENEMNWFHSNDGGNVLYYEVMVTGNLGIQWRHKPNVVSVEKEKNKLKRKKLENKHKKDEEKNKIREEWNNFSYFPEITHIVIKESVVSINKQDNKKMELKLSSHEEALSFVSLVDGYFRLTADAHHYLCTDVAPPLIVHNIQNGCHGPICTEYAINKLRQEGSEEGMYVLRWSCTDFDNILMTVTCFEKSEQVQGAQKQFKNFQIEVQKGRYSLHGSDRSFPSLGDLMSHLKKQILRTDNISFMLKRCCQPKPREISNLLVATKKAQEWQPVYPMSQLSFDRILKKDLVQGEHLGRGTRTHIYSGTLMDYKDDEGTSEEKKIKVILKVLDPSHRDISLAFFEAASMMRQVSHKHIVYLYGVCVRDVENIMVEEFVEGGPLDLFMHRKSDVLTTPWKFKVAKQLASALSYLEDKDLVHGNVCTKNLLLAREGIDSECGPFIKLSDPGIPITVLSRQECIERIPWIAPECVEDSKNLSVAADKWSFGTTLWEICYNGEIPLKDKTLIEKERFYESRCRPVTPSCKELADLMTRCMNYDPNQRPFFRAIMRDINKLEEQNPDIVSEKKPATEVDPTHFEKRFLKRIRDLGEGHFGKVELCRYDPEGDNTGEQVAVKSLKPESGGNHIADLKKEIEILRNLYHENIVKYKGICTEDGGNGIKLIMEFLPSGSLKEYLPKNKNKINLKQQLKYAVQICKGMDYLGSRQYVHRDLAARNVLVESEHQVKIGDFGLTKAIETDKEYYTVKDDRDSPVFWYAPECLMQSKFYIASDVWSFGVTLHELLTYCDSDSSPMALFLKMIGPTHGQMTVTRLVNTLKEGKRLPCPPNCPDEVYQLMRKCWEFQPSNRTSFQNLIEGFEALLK
Sequence of Serine/threonine-protein kinase PLK3 (Homo sapiens) (Q9H4B4 whole entry, looked up, the tested form may be a part): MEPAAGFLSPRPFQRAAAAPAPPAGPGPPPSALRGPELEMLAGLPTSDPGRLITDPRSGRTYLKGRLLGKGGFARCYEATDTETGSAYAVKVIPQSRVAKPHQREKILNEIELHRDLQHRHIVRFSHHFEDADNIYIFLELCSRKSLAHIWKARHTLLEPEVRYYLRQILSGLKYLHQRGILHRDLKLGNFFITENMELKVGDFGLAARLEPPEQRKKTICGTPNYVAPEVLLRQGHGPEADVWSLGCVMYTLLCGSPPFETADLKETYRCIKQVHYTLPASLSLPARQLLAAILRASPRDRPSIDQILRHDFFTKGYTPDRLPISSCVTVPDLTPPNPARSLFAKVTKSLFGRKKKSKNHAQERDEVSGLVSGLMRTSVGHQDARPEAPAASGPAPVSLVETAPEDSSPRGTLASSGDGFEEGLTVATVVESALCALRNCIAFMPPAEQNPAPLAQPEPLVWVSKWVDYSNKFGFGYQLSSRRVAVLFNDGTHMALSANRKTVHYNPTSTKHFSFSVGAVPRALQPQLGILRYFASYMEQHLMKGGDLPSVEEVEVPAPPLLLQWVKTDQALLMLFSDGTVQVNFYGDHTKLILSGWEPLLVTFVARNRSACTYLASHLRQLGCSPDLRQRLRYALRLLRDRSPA
Sequence of Epidermal growth factor receptor (Homo sapiens), P00533 [G719S] (P00533 whole entry G719S, the tested form may be a part): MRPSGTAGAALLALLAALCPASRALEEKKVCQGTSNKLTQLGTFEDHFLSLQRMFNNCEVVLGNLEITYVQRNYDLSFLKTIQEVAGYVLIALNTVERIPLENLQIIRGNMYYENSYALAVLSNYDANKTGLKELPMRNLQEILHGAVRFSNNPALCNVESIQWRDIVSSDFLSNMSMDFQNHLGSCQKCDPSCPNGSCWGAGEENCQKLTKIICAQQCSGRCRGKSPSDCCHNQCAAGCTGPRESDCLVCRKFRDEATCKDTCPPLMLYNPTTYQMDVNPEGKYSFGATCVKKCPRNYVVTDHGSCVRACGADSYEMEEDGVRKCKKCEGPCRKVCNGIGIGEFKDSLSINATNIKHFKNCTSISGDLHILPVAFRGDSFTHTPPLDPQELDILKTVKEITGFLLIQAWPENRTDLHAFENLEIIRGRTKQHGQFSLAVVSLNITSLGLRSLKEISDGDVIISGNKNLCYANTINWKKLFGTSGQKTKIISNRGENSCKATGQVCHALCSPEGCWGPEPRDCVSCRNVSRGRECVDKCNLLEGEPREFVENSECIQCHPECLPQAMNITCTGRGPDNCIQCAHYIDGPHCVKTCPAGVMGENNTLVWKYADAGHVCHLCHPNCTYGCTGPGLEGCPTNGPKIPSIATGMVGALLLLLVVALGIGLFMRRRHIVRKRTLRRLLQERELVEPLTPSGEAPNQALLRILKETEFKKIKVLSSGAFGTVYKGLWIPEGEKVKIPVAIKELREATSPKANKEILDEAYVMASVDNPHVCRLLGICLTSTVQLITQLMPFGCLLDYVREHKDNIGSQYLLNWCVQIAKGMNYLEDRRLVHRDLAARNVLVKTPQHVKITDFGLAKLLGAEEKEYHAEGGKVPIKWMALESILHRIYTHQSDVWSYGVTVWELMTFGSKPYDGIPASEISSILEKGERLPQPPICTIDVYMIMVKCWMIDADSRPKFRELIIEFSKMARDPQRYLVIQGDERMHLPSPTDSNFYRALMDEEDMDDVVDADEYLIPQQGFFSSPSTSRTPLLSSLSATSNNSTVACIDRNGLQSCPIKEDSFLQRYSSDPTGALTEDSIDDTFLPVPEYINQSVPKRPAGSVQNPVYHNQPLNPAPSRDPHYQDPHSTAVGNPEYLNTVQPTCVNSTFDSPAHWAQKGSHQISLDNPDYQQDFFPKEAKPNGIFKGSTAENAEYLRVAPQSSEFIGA
Sequence of Dual specificity protein kinase CLK4 (Homo sapiens) (Q9HAZ1 whole entry, looked up, the tested form may be a part): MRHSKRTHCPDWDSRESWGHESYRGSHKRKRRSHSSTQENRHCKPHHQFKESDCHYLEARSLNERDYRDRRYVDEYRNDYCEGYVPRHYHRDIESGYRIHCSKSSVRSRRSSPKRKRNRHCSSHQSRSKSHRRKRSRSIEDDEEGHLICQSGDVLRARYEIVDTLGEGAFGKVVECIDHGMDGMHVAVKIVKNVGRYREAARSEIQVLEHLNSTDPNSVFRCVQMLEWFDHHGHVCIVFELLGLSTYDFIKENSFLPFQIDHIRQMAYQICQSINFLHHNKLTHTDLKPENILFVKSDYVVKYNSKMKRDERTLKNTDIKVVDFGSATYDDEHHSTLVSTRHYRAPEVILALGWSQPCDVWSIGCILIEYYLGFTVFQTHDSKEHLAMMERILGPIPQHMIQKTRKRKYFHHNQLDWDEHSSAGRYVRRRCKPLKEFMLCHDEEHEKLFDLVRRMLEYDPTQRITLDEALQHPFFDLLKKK
Sequence of Cyclin-dependent kinase 5 (Homo sapiens) (Q00535 whole entry, looked up, the tested form may be a part): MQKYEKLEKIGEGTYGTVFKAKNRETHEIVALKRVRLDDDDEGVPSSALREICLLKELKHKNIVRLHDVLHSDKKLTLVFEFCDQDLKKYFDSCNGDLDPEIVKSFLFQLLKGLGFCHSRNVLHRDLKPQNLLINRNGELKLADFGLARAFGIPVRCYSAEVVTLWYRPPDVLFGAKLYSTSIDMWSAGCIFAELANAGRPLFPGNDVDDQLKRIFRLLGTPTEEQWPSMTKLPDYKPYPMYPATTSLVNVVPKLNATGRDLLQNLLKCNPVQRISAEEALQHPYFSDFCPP

CCOc1cc(C(=O)N2CCC(N3CCN(C)CC3)CC2)ccc1Nc1ncc2c(n1)N(C1CCCC1)c1ccccc1C(=O)N2C
inhibition [1]: inactive

COc1cc(N2CCC(N3CCN(C)CC3)CC2)ccc1Nc1ncc2c(n1)N(C)c1ccccc1C(=O)N2C
inhibition [2]: 84% | inhibition [3]: 100% | inhibition [4]: 100% | inhibition [5]: 21% | inhibition [6]: 81% | inhibition [7]: 54% | inhibition [8]: 86% | inhibition [9]: 100% | inhibition [10]: 89% | inhibition [11]: 89% | inhibition [12]: 92% | inhibition [13]: 100% | inhibition [14]: 100% | inhibition [15]: 74% | inhibition [16]: 77% | inhibition [17]: 100% | inhibition [18]: 51% | inhibition [19]: 42% | inhibition [20]: 84% | residual activity [21]: 90% | residual activity [22]: 50% | residual activity [23]: 72% | residual activity [24]: 87% | residual activity [25]: 94% | residual activity [26]: 94% | residual activity [27]: 99%

COc1cc(C(=O)N2CCC(N3CCN(C)CC3)CC2)ccc1Nc1ncc2c(n1)N(C1CCCC1)c1ccccc1C(=O)N2C
inhibition [28]: 0.2% | inhibition [29]: 0.3%
